# Experimental data: US20200069772A1, “METHODS OF TREATING EARLY RHEUMATOID ARTHRITIS” (BRISTOL-MYERS SQUIBB COMPANY, priority 2014, published 2020)
# Several values for one entry are separate records, joined by “and”; a condition that tells them apart may be missing. Equal values may be shown once.
# Assays:
# patients with early RA [1] = experiment: AVERT trial: HAQ-DI response (≥0.3 points reduction from baseline); format: in vivo, human; details: Month 12
# patients with early RA [2] = experiment: AVERT phase 3b randomized active-controlled trial: signs and symptoms (DAS-defined remission, other remission and ACR measures); format: in vivo, human
# Protocol: Patients receiving oral corticosteroids were required to be on a stable dose (≤10 mg/day for ≥4 weeks) at initiation and to maintain that dose until Month 12.
# All patients received concomitant folic acid therapy.
# Patients with DAS28 (CRP)≥3.2 were discontinued.
# For the purpose of this study, DAS-defined remission was DAS28 (CRP)<2.6.
# Exploratory endpoints included: Other remission rates (Simplified Disease Activity Index [SDAI; ≤3.3], Clinical Disease Activity Index [CDAI; ≤2.8] and Boolean remission [28-joint tender joint count ≤1 and 28-joint swollen joint count ≤1 and patient global assessment of disease activity [0-10 cm]≤1 and high-sensitivity CRP≤1 mg/dL]), American College of Rheumatology (ACR) responses and Major Clinical Response (ACR 70 response for 6 months at any time period) in each arm.
# Co-primary endpoints were tested in hierarchical fashion. […] All patients who discontinued prior to completing the treatment or withdrawal period were imputed as non-responders for the Month 12 or 18 analyses.
# Endpoints of Disease Activity Score (DAS)-defined remission, SDAI remission, CDAI remission, Boolean remission, ACR 20/50/70 response and Major Clinical Response over time were summarized using descriptive statistics (with 95% confidence intervals at each time point).
# For each treatment arm, a post hoc analysis was performed of mean baseline characteristics for patients who achieved DAS-defined remission at only Month 12 and at both Months 12 and 18, and of the proportions of patients who achieved DAS-defined remission based on these characteristics. An analysis of the overall treatment effect in mean change from baseline in DAS28 (CRP) (including data up to Month 12 of the treatment period) was performed for each treatment arm. Overall treatment effect and treatment differences between the three arms were obtained using a longitudinal repeated measures model including fixed categorical effects of treatment, months, and prior corticosteroid use as well as the continuous fixed covariate of baseline value. An unstructured covariance matrix was used to represent the correlation of the repeated measures within each subject.
# [3] = treatment period, compared subgroups not stated
smiles,measurement,setting,value
"CN(Cc1cnc2nc(N)nc(N)c2n1)c1ccc(C(=O)N[C@@H](CCC(=O)O)C(=O)O)cc1 [MTX, methotrexate]","HAQ-DI Response (≥0.3), proportion of patients",patients with early RA [1],44.0% and 51 (44.0) %
same,proportion of patients in DAS-defined remission (DAS28 [CRP]<2.6) at Month 12,"patients with early RA [2]; Month 12 of treatment period, patients with baseline DAS28 (CRP), discontinuations imputed as non-responders",45.2%
same,proportion of patients in DAS-defined remission (DAS28 [CRP]<2.6) at both Months 12 and 18,"patients with early RA [2]; after withdrawal of all RA therapy at Month 12, only patients with DAS28 (CRP) available at baseline",7.8%
same,patients remaining in DAS-defined remission at Month 18,patients with early RA [2]; of the patients who entered the withdrawal period in DAS-defined remission at Month 12,16.9%
same,Proportion of Patients with DAS-defined Remission (DAS28 [CRP] < 2.6) at Both Months 12 and 18,patients with early RA [2]; post hoc subgroup: baseline DAS28 (CRP) >Median (5.4),3/55 (5.5) %
same,Proportion of Patients with DAS-defined Remission (DAS28 [CRP] < 2.6) at Both Months 12 and 18,patients with early RA [2]; post hoc subgroup: baseline DAS28 (CRP) Missing,0/1 (0) %
same,Proportion of Patients with DAS-defined Remission (DAS28 [CRP] < 2.6) at Both Months 12 and 18,patients with early RA [2]; post hoc subgroup: baseline DAS28 (CRP) ≤Median (5.4),6/60 (10.0) %
same,Proportion of Patients with DAS-defined Remission (DAS28 [CRP] < 2.6) at Both Months 12 and 18,patients with early RA [2]; post hoc subgroup: baseline Erosion >Median (4.5),3/50 (6.0) %
same,Proportion of Patients with DAS-defined Remission (DAS28 [CRP] < 2.6) at Both Months 12 and 18,patients with early RA [2]; post hoc subgroup: baseline Erosion >Q1 (1.5)-Q2 (4.5),2/23 (8.7) %
same,Proportion of Patients with DAS-defined Remission (DAS28 [CRP] < 2.6) at Both Months 12 and 18,patients with early RA [2]; post hoc subgroup: baseline Erosion >Q2 (4.5)-Q3 (8.5),2/23 (8.7) %
same,Proportion of Patients with DAS-defined Remission (DAS28 [CRP] < 2.6) at Both Months 12 and 18,patients with early RA [2]; post hoc subgroup: baseline Erosion >Q3 (8.5),1/27 (3.7) %
same,Proportion of Patients with DAS-defined Remission (DAS28 [CRP] < 2.6) at Both Months 12 and 18,patients with early RA [2]; post hoc subgroup: baseline Erosion Missing,2/13 (15.4) %
same,Proportion of Patients with DAS-defined Remission (DAS28 [CRP] < 2.6) at Both Months 12 and 18,patients with early RA [2]; post hoc subgroup: baseline Erosion ≤Median (4.5),4/53 (7.5) %
same,Proportion of Patients with DAS-defined Remission (DAS28 [CRP] < 2.6) at Both Months 12 and 18,patients with early RA [2]; post hoc subgroup: baseline Erosion ≤Q1 (1.5),2/30 (6.7) %
same,Proportion of Patients with DAS-defined Remission (DAS28 [CRP] < 2.6) at Both Months 12 and 18,patients with early RA [2]; post hoc subgroup: baseline HAQ-DI >Median (1.375),5/49 (10.2) %
same,Proportion of Patients with DAS-defined Remission (DAS28 [CRP] < 2.6) at Both Months 12 and 18,patients with early RA [2]; post hoc subgroup: baseline HAQ-DI Missing,0/11 (0) %
same,Proportion of Patients with DAS-defined Remission (DAS28 [CRP] < 2.6) at Both Months 12 and 18,patients with early RA [2]; post hoc subgroup: baseline HAQ-DI ≤Median (1.375),4/56 (7.1) %
same,Proportion of Patients with DAS-defined Remission (DAS28 [CRP] < 2.6) at Both Months 12 and 18,patients with early RA [2]; post hoc subgroup: baseline Osteitis >Median (0.5),3/49 (6.1) %
same,Proportion of Patients with DAS-defined Remission (DAS28 [CRP] < 2.6) at Both Months 12 and 18,patients with early RA [2]; post hoc subgroup: baseline Osteitis >Q1 (0)-Q2 (0.5),0/5 (0) %
same,Proportion of Patients with DAS-defined Remission (DAS28 [CRP] < 2.6) at Both Months 12 and 18,patients with early RA [2]; post hoc subgroup: baseline Osteitis >Q2 (0.5)-Q3 (5),2/26 (7.7) %
same,Proportion of Patients with DAS-defined Remission (DAS28 [CRP] < 2.6) at Both Months 12 and 18,patients with early RA [2]; post hoc subgroup: baseline Osteitis >Q3 (5),1/23 (4.3) %
same,Proportion of Patients with DAS-defined Remission (DAS28 [CRP] < 2.6) at Both Months 12 and 18,patients with early RA [2]; post hoc subgroup: baseline Osteitis Missing,2/13 (15.4) %
same,Proportion of Patients with DAS-defined Remission (DAS28 [CRP] < 2.6) at Both Months 12 and 18,patients with early RA [2]; post hoc subgroup: baseline Osteitis ≤Median (0.5),4/54 (7.4) %
same,Proportion of Patients with DAS-defined Remission (DAS28 [CRP] < 2.6) at Both Months 12 and 18,patients with early RA [2]; post hoc subgroup: baseline Osteitis ≤Q1 (0),4/49 (8.2) %
same,Proportion of Patients with DAS-defined Remission (DAS28 [CRP] < 2.6) at Both Months 12 and 18,patients with early RA [2]; post hoc subgroup: baseline Pain (100 mm VAS) >Median (62),2/45 (4.4) %
same,Proportion of Patients with DAS-defined Remission (DAS28 [CRP] < 2.6) at Both Months 12 and 18,patients with early RA [2]; post hoc subgroup: baseline Pain (100 mm VAS) Missing,0/11 (0.0) %
same,Proportion of Patients with DAS-defined Remission (DAS28 [CRP] < 2.6) at Both Months 12 and 18,patients with early RA [2]; post hoc subgroup: baseline Pain (100 mm VAS) ≤Median (62),7/60 (11.7) %
same,Proportion of Patients with DAS-defined Remission (DAS28 [CRP] < 2.6) at Both Months 12 and 18,patients with early RA [2]; post hoc subgroup: baseline Synovitis >Median (4.5),3/56 (5.4) %
same,Proportion of Patients with DAS-defined Remission (DAS28 [CRP] < 2.6) at Both Months 12 and 18,patients with early RA [2]; post hoc subgroup: baseline Synovitis >Q1 (2)-Q2 (4.5),1/23 (4.3) %
same,Proportion of Patients with DAS-defined Remission (DAS28 [CRP] < 2.6) at Both Months 12 and 18,patients with early RA [2]; post hoc subgroup: baseline Synovitis >Q2 (4.5)-Q3 (8.5),1/30 (3.3) %
same,Proportion of Patients with DAS-defined Remission (DAS28 [CRP] < 2.6) at Both Months 12 and 18,patients with early RA [2]; post hoc subgroup: baseline Synovitis >Q3 (8.5),2/26 (7.7) %
same,Proportion of Patients with DAS-defined Remission (DAS28 [CRP] < 2.6) at Both Months 12 and 18,patients with early RA [2]; post hoc subgroup: baseline Synovitis Missing,2/13 (15.4) %
same,Proportion of Patients with DAS-defined Remission (DAS28 [CRP] < 2.6) at Both Months 12 and 18,patients with early RA [2]; post hoc subgroup: baseline Synovitis ≤Median (4.5),4/47 (8.5) %
same,Proportion of Patients with DAS-defined Remission (DAS28 [CRP] < 2.6) at Both Months 12 and 18,patients with early RA [2]; post hoc subgroup: baseline Synovitis ≤Q1 (2),3/24 (12.5) %
same,Proportion of Patients with DAS-defined Remission (DAS28 [CRP] < 2.6) at Both Months 12 and 18,patients with early RA [2]; post hoc subgroup: symptom duration >6 Months,2/39 (5.1) %
same,Proportion of Patients with DAS-defined Remission (DAS28 [CRP] < 2.6) at Both Months 12 and 18,patients with early RA [2]; post hoc subgroup: symptom duration >Median (0.37 years),4/47 (8.5) %
same,Proportion of Patients with DAS-defined Remission (DAS28 [CRP] < 2.6) at Both Months 12 and 18,patients with early RA [2]; post hoc subgroup: symptom duration ≤6 Months,7/77 (9.1) %
same,Proportion of Patients with DAS-defined Remission (DAS28 [CRP] < 2.6) at Both Months 12 and 18,patients with early RA [2]; post hoc subgroup: symptom duration ≤Median (0.37 years),5/69 (7.2) %
same,time with DAS28 (CRP) <2.6 during the treatment period (first value of 'x vs y'),patients with early RA [2]; [3],5.8 months
same,time with DAS28 (CRP) <2.6 during the treatment period (second value of 'x vs y'),patients with early RA [2]; [3],5.7 months
